From US20080153872A1, “Bis-(Coumarin) Compounds With Anti-Inflammatory Activity” (priority 2005, published 2008)

Biological target: T1, Human ERK1 (Homo sapiens, UniProt P27361)
T1 construct: made in house; host or cells: Escherichia coli
Experiment: Human protein serine/threonine kinase, ERK1, assay
Type: biochemical
Conditions: 10 μM
Experimental: All compounds were dissolved in dimethyl sulfoxide (DMSO). Final concentration of the DMSO in all tests was 1% (v/v). Inhibition in all tests is considered preferred if it exceeds 50% at 10 μM concentration (or less).
Human ERK1 is expressed in Escherichia coli and purified. Compounds are pre-incubated in MOPS/EGTA buffer with pervanadate, DTT and γ-[^32P]-ATP with recombinant enzyme for 15 minutes at 37° C. Substrate (purified myelin basic protein, MBP) is added, followed by incubation at 37° C. for 30 minutes. Enzyme activity is measured by quantitation of [^32P]-MBP and inhibition is calculated from specific radioactivity. ERK1 is a serine/threonine kinase activated in MAPK (mitogen activated kinase) pathway. ERK1 is implicated in a high proportion of human cancers, including Hodgkin disease. ERK1 is involved in processes of cell growth, division and inflammation.

T1 sequence (P27361 whole entry): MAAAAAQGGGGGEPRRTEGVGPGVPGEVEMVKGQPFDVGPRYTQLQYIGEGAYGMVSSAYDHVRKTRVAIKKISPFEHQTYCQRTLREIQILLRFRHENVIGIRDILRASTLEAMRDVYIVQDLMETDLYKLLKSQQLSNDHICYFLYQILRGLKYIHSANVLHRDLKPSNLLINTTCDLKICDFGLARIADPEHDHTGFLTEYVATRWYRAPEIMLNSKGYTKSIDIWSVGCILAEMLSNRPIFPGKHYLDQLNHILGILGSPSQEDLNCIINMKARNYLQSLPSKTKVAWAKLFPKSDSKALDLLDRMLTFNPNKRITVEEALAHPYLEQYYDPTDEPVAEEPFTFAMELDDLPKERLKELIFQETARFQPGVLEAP

SMILES: CC(=O)C(c1c(O)c2cccc(C(C)C)c2oc1=O)c1c(O)c2cccc(C(C)C)c2oc1=O [Example 19]
- inhibition of human ERK1 activity: significantly inhibited
